Source: patent US9375006B2, “5- halogenopyrazole benzofuranyl carboxamides” (BAYER CROPSCIENCE AG, priority 2012, dated 2016)

What was measured:
[1] = test system: Puccinia recondita; assay: In vivo preventive test on Puccinia recondita (brown rust on wheat); details: wheat plants, preventive spray, grading 12 days after contamination
Experimental: (§1) The active ingredients tested are prepared by homogenization in a mixture of acetone/tween/DMSO, and then diluted with water to obtain the desired active material concentration.
Wheat plants (“Scipion” variety), sown in starter cups on a 50/50 peat soil-pozzolana substrate and grown at 22° C., are treated at the 1-leaf stage (10 cm height) by spraying with the active ingredient prepared as described above. Plants, used as controls, are treated with the mixture of acetone/tween/DMSO/water not containing the active material.
(§2) After 24 hours, the plants are contaminated by spraying the leaves with an aqueous suspension of Puccinia condita spores (100 000 spores per ml). The spores are collected from an infected plant and are suspended in water containing 2.5 ml/l of Tween 80 at 10%. The contaminated wheat plants are incubated for 24 hours at 20° C. and at 100% relative humidity, and then for 10 days at 20° C. and at 70-80% relative humidity.
(§3) Grading (% of efficacy) is carried out 12 days after the contamination, in comparison with the control plants.

[2] = test system: Uromyces appendiculatus; assay: In vivo preventive test on Uromyces appendiculatus (bean rust); details: bean plants, preventive spray, grading 11 days after contamination
Experimental: as §1
Bean plants (“Saxa” variety), sown in starter cups on a 50/50 peat soil-pozzolana substrate and grown at 24° C., are treated at the 2-leaf stage (9 cm height) by spraying with the active ingredient prepared as described above. Plants, used as controls, are treated with the mixture of acetone/tween/DMSO/water not containing the active material.
as §2, with “of Uromyces appendiculatus” for “of Puccinia condita”, “spores (150” for “spores (100”, “from” for “from an”, “infected plants” for “infected plant”, “contaminated bean” for “contaminated wheat”
Grading (% of efficacy) is carried out 11 days after the contamination, in comparison with the control plants.

[3] = logP by HPLC on reversed phase columns (EEC directive 79/831 Annex V.A8); assay type: physicochemical; details: method [a]: LC-MS at pH 2.7, 0.1% formic acid in water / acetonitrile; for chromatographic logP: reversed phase HPLC columns
Experimental: Measurement of log P values was performed according EEC directive 79/831 Annex V.A8 by HPLC (High Performance Liquid Chromatography) on reversed phase columns with the following methods: ^[a] Measurement of LC-MS was done at pH 2.7 with 0.1% formic acid in water and with acetonitrile (contains 0.1% formic acid) as eluent with a linear gradient from 10% acetonitrile to 95% acetonitrile. ^[b] Measurement with LC-MS was done at pH 7.8 with 0.001 molar ammonium hydrogen carbonate solution in water as eluent with a linear gradient from 10% acetonitrile to 95% acetonitrile.

[4] = test system: Sphaerotheca fuliginea; assay: In vivo preventive test on Sphaerotheca fuliginea (powdery mildew on cucurbits); details: gherkin plants, preventive spray, grading 12 days after contamination
Experimental: (§4) The active ingredients tested are prepared by homogenization in a mixture of acetone/tween/DMSO and then diluted with water to obtain the desired active material concentration.
(§5) Gherkin plants (“Vert petit de Paris” variety), sown in starter cups on a 50/50 peat soil-pozzolana substrate and grown at 24° C., are treated at the Z11 cotyledon stage by spraying with the active ingredient prepared as described above. Plants, used as controls, are treated with the mixture of acetone/tween/DMSO/water not containing the active material.
After 24 hours, the plants are contaminated by spraying the cotyledons with an aqueous suspension of Sphaerotheca fuliginea spores (100 000 spores per ml). The spores are collected from infected plants. The contaminated gherkin plants are incubated at about 20° C. and at 70-80% relative humidity.
as §3

[5] = test system: Pyrenophora teres; assay: In vivo preventive test on Pyrenophora teres (net blotch on barley); details: barley plants, preventive spray, grading 14 days after contamination
Experimental: Barley plants (“Plaisant” variety), sown in starter cups on a 50/50 peat soil-pozzolana substrate and grown at 22° C., are treated at the 1-leaf stage (10 cm height) by spraying with the active ingredient prepared as described above. Plants, used as controls, are treated with the mixture of acetone/tween/DMSO/water not containing the active material. After 24 hours, the plants are contaminated by spraying the leaves with an aqueous suspension of Pyrenophora teres spores (12 000 spores per ml). The spores are collected from a 12-day-old culture. The contaminated barley plants are incubated for 48 hours at 20° C. and at 100% relative humidity, and then for 12 days at 20° C. at 70-80% relative humidity. Grading (% of efficacy) is carried out 14 days after the contamination, in comparison with the control plants.

[6] = test system: Botrytis cinerea; assay: In vivo preventive test on Botrytis cinerea (grey mould), gherkin plants; details: preventive spray, grading 4 to 5 days after contamination
Experimental: as §4, §5
After 24 hours, the plants are contaminated by spraying the cotyledons with an aqueous suspension of cryopreserved Botrytis cinerea spores (50 000 spores per ml). The spores are suspended in a nutrient solution composed of 10 g/L of PDB, 50 g/L of D-Fructose, 2 g/L of NH4NO3 and 1 g/L of KH2PO4. The contaminated gherkin plants are incubated at 17° C. and at 90% relative humidity.
Grading (% of efficacy) is carried out 4 to 5 days after the contamination, in comparison with the control plants.

[7] = test system: Septoria tritici; assay: In vivo preventive test on Septoria tritici (leaf spot on wheat); details: 500 ppm, wheat plants, preventive spray, grading 24 days after contamination
Experimental: Wheat plants (“Scipion” variety), sown in starter cups on a 50/50 peat soil-pozzolana substrate and grown at 22° C., are treated at the 1-leaf stage (10 cm height) by spraying with the active ingredient prepared as described above. Plants, used as controls, are treated with the mixture of acetone/tween/DMSO/water not containing the active material. After 24 hours, the plants are contaminated by spraying the leaves with an aqueous suspension of cryopreserved Septoria tritici spores (500 000 spores per ml). The contaminated wheat plants are incubated for 72 hours at 18° C. and at 100% relative humidity, and then for 21 days at 90% relative humidity. Grading (% of efficacy) is carried out 24 days after the contamination, in comparison with the control plants.

[8] = test system: Alternaria brassicae; assay: In vivo preventive test on Alternaria brassicae (leaf spot on radish); details: radish plants, preventive spray, grading 6 days after contamination
Experimental: Radish plants (“Pernod Clair” variety), sown in starter cups on a 50/50 peat soil-pozzolana substrate and grown at 17° C., are treated at the cotyledon stage by spraying with the active ingredient prepared as described above. Plants, used as controls, are treated with the mixture of acetone/tween/DMSO/water not containing the active material. After 24 hours, the plants are contaminated by spraying the cotyledons with an aqueous suspension of Alternaria brassicae spores (50 000 spores per ml). The spores are collected from a 15-day-old culture. The contaminated radish plants are incubated at 20° C. and at 100% relative humidity. Grading (% of efficacy) is carried out 6 days after the contamination, in comparison with the control plants.

Row | SMILES | logP [3] | Eff. % ([1]; 500 ppm) | Eff. % ([2]; 500 ppm) | Eff. % ([4]; 100 ppm) | Eff. % ([8]; 100 ppm) | Eff. % ([1]; 100 ppm) | Eff. % ([5]; 100 ppm) | Eff. % ([2]; 100 ppm) | Eff. % ([6]; 100 ppm) | further results
1 | Cn1nc(C(F)F)c(C(=O)Nc2cccc3c2COC3(C)C)c1F [Example 3] | 2.35[a] | 100% | 100% | – | – | – | – | – | – | –
2 | CCC1(CC)OC(C)c2c(NC(=O)c3cn(C)nc3C(F)F)cccc21 (centres unmarked) [Example 6] | 2.9[a] | – | 100% | – | – | – | – | – | – | Eff. % ([4]; 500 ppm): 100%; Eff. % ([5]; 500 ppm): 92%; Eff. % ([6]; 500 ppm): 100%; Eff. % [7]: 100%
3 | Cn1cc(C(=O)Nc2cccc3c2COC3(C)C)c(C(F)F)n1 [Example 7] | 2.1[a] | 98% | 100% | – | – | – | – | – | – | –
4 | CCC1(CC)OC(C(C)C)c2c(NC(=O)c3c(C(F)F)nn(C)c3F)cccc21 (centres unmarked) [Example 8] | 4.06[a] | 98% | 100% | – | – | – | – | – | – | Eff. % ([4]; 500 ppm): 100%; Eff. % ([8]; 500 ppm): 83%; Eff. % [7]: 86%
5 | CC1OC(C)(C)c2cccc(NC(=O)c3cn(C)nc3C(F)F)c21 (centres unmarked) [Example 10] | 2.15[a] | 94% | 95% | – | – | – | – | – | – | –
6 | CCC1(CC)OC(C(C)C)c2c(NC(=O)c3cn(C)nc3C(F)F)cccc21 (centres unmarked) [Example 12] | 3.63[a] | 94% | 100% | – | – | – | – | – | – | Eff. % ([4]; 500 ppm): 100%; Eff. % ([8]; 500 ppm): 78%; Eff. % [7]: 86%
7 | CCC1OC(C)(C)c2cccc(NC(=O)c3cn(C)nc3C(F)F)c21 (centres unmarked) [Example 16] | – | – | – | 98% | – | 98% | 83% | 100% | 83% | –
8 | CCC1OCc2cccc(NC(=O)c3c(C(F)F)nn(C)c3Br)c21 (centres unmarked) [Example 20] | 2.96[a] | – | – | – | – | 98% | – | 100% | – | –
9 | CC(C)C1OC(C)(C)c2cccc(NC(=O)c3c(C(F)F)nn(C)c3F)c21 (centres unmarked) [Example 22, 3-(difluoromethyl)-5-fluoro-N-(3-isopropyl-1,1-dimethyl-1,3-dihydro-2-benzofuran-4-yl)-1-methyl-1H-pyrazole-4-carboxamide] | – | – | – | 100% | – | 98% | 97% | 99% | 98% | chromatographic logP [3]: 3.11
10 | CCC1OC(CC)(CC)c2cccc(NC(=O)c3cn(C)nc3C(F)F)c21 (centres unmarked) [Example 23] | 3.26[a] | – | – | 100% | 88% | 98% | 92% | 100% | 97% | –
11 | CC(C)C1OC(C)(C)c2cccc(NC(=O)c3cn(C)nc3C(F)F)c21 (centres unmarked) [Example 25] | 2.76[a] | – | – | 100% | 75% | 98% | 83% | 99% | 98% | –
12 | CCC1OC(CC)(CC)c2cccc(NC(=S)c3cn(C)nc3C(F)F)c21 (centres unmarked) [Example 26, 3-(difluoromethyl)-1-methyl-N-(1,1,3-triethyl-1,3-dihydro-2-benzofuran-4-yl)-1H-pyrazole-4-carbothioamide] | – | – | – | – | – | – | – | – | – | chromatographic logP [3]: 3.76

Now from value to compound, other results behind:

Row | logP [3] | SMILES | Eff. % ([1]; 500 ppm) | Eff. % ([2]; 500 ppm) | Eff. % ([4]; 100 ppm) | Eff. % ([8]; 100 ppm) | Eff. % ([1]; 100 ppm) | Eff. % ([5]; 100 ppm) | Eff. % ([2]; 100 ppm) | Eff. % ([6]; 100 ppm) | further results
13 | 2.55[a] | Cn1nc(C(F)F)c(C(=O)Nc2cccc3c2COC3(C)C)c1Cl [Example 4] | 100% | 100% | – | – | – | – | – | – | –
14 | 2.64[a] | CC1OC(C)(C)c2cccc(NC(=O)c3c(C(F)F)nn(C)c3Br)c21 (centres unmarked) [Example 5] | 97% | 100% | – | – | – | – | – | – | –
15 | 3.48[a] | CCC1(CC)OC(C)c2c(NC(=O)c3c(C(F)F)nn(C)c3Cl)cccc21 (centres unmarked) [Example 9] | 100% | 100% | – | – | – | – | – | – | Eff. % ([4]; 500 ppm): 94%; Eff. % [7]: 93%
16 | 3.33[a] | CC(C)C1OC(C)(C)c2cccc(NC(=O)c3c(C(F)F)nn(C)c3Cl)c21 (centres unmarked) [Example 14] | – | – | 100% | 75% | 98% | 92% | 100% | 93% | –
17 | 2.94[a] | CCC1OC(C)(C)c2cccc(NC(=O)c3c(C(F)F)nn(C)c3Cl)c21 (centres unmarked) [Example 15] | – | – | 98% | 75% | 100% | 92% | 100% | – | –
18 | 3.33[a] | CC(C)C1OC(C)(C)c2cccc(NC(=O)c3c(C(F)F)nn(C)c3Br)c21 (centres unmarked) [Example 17] | – | – | – | – | 94% | 83% | 100% | – | –
19 | 3.87[a] | CCC1OC(CC)(CC)c2cccc(NC(=O)c3c(C(F)F)nn(C)c3Cl)c21 (centres unmarked) [Example 18] | – | – | 100% | 75% | 98% | 83% | 100% | – | –
20 | 3.87[a] | CCC1OC(CC)(CC)c2cccc(NC(=O)c3c(C(F)F)nn(C)c3Br)c21 (centres unmarked) [Example 19] | – | – | 83% | 75% | 98% | – | 100% | – | –
21 | 2.76[a] | CCC1OC(C)(C)c2cccc(NC(=O)c3c(C(F)F)nn(C)c3F)c21 (centres unmarked) [Example 21] | – | – | 98% | – | 98% | – | 100% | 93% | –
22 | 3.65[a] | CCC1OC(CC)(CC)c2cccc(NC(=O)c3c(C(F)F)nn(C)c3F)c21 (centres unmarked) [Example 24] | – | – | 100% | 75% | 98% | 83% | 100% | 87% | –
